# Source: US20250100996A1, “HETEROCYCLOALKYL AND HETEROARYL COMPOUNDS AND PHARMACEUTICAL COMPOSITIONS THAT MODULATE IKZF2” (Plexium, Inc., priority 2021, published 2025)
# Key:
# [1] = molecular target: T1, human E3 ligase component cereblon (CRBN) (Homo sapiens, UniProt Q96SW2); assay: Cereblon (CRBN) target engagement, NanoBRET TE Intracellular E3 Ligase Assay in transfected HEK-293T cells; conditions: read-out: CRBN Binding EC50
# T1 construct: host or cells: HEK293T
# Method: HEK293T cells were harvested ca. 75% confluent with trypsin and plated (500,000 cells/well) in a 6-well tissue culture plate in 2 mL of Dulbecco's Modified Eagle Medium (DMEM)^+10% Fetal Bovine Serum (FBS) and incubated overnight at 37° C.
# The NanoLuc-CRBN fusion vector (Nluc-CRBN; Promega) contains the coding region of human E3 ligase component cereblon (CRBN) fused to the C-terminus of the NanoLuc luciferase coding region. A mixture of 10 ng Nluc-CRBN and 990 ng DDB1 Expression Vector (Promega) was added to 125 μL Opti-Minimum Essential Medium (Opti-MEM™; Thermo Fisher) along with […] P3000 reagent (Thermo Fisher) in a 1.5 mL epppendorf tube. This solution was added to Lipofectamine 3000 transfection reagent (5 μL; Thermo Fisher) in Opti-MEM (125 μL), mixed well, and incubated for 15 minutes at room temperature. The transfection mixture was added dropwise to cells and incubated overnight at 37° C., 5% CO2. Following transfection, cells were washed once with PBS, and trypsin (250 μL) was added and incubated 30-45 see to dislodge cells. Complete media (2 mL) was added to resuspend cells to form a single cell suspension. Cells were centrifuged at 320×g for 5 min at room temperature, the supernatant was removed, and the cell pellet resuspended in Opti-MEM (3 mL; wash step repeated ×2). After final resuspension in 5 mL Opti-MEM, cells were counted and resuspended at 200,000 cells/mL in Opti-MEM.
# Cereblon target engagement was monitored by Bioluminescence Resonance Energy Transfer (BRET) in transfected HEK-293T cells using the NanoBRET TE Intracellular E3 Ligase Assay (Promega). Briefly, 384-well plates (white opaque plates, Corning 3574, low binding surface) were seeded with transfected HEK-293T cells (38 μL/well). 2 μL of 10 μM CRBN tracer (diluted 1:5 in Tracer Dilution Buffer) was added to each well. Plates were centrifuged at 320×g for 1 min at room temperature. Test compounds were added in a 11-point dilution series (typically 10 μM to 100 pM) using a TECAN D300e Digital Dispenser. Plates were shaken for 2 minutes on a microplate shaker to mix compounds. Plates were centrifuged at 320×g for 1 min at room temperature, and subsequently incubated for 2 hours at 37° C.
# After incubation, plates were allowed to cool to room temperature for 15 minutes. 20 μL of 3× Complete NanoBRET™ Nano-Glo® Substrate plus Inhibitor Solution (Promega, 1:166 Substrate and 1:500 dilution of Extracellular NanoLuc® Inhibitor diluted in Opti-MEM) were added to each well. Plates were incubated with shaking at room temperature for 3 minutes covered with foil. Plates were read on a CLARIOstar microplate reader (BMG LabTech), measuring at 450 nm (donor emission) and 610 nm (acceptor emission). The IC50 values were determined by regression to best fit four-parameter logistic curves using GraphPad Prism.
# [2] = molecular target: T2, IKZF2 (Helios) (Homo sapiens, UniProt Q9UKS7); assay: IKZF2 reporter degradation assay (HEK 293T IKZF2-mNeonGreen reporter cell line); format: cell-based; conditions: HEK 293T IKZF2-mNeonGreen reporter, 24 hours incubation
# T2 construct: Leu-Asp junction (codons ctcgac before the linker); mScarlet (behind P2A) (C, cleaved yes); expressed in transfected cells
# T2 sequence (Q9UKS7 whole entry): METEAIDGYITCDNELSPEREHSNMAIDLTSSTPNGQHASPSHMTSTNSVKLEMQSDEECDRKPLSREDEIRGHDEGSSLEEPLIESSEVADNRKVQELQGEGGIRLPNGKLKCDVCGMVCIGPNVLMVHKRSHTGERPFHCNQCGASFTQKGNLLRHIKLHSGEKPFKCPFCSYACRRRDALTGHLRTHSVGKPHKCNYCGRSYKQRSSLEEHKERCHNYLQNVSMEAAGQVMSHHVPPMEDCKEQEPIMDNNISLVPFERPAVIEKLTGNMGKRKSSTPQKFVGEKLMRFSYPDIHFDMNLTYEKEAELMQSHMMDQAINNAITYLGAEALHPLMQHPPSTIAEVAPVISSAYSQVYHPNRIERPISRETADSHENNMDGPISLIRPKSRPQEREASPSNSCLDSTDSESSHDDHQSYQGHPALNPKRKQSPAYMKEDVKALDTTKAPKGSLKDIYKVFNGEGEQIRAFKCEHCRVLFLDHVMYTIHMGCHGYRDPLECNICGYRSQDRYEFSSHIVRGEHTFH
# T2 sequence (Q96SW2 whole entry, further chain): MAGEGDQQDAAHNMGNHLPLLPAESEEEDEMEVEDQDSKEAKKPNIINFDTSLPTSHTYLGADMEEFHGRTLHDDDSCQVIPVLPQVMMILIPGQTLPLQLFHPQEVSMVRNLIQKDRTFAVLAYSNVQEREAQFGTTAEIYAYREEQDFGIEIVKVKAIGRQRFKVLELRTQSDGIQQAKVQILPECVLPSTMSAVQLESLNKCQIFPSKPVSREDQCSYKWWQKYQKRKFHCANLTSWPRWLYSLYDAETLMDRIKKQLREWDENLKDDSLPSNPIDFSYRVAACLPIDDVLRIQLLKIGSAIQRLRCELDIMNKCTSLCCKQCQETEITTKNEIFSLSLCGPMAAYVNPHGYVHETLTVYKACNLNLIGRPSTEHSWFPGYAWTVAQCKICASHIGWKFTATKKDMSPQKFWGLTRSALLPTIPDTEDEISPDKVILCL
# T2 sequence (Q16531 whole entry partner): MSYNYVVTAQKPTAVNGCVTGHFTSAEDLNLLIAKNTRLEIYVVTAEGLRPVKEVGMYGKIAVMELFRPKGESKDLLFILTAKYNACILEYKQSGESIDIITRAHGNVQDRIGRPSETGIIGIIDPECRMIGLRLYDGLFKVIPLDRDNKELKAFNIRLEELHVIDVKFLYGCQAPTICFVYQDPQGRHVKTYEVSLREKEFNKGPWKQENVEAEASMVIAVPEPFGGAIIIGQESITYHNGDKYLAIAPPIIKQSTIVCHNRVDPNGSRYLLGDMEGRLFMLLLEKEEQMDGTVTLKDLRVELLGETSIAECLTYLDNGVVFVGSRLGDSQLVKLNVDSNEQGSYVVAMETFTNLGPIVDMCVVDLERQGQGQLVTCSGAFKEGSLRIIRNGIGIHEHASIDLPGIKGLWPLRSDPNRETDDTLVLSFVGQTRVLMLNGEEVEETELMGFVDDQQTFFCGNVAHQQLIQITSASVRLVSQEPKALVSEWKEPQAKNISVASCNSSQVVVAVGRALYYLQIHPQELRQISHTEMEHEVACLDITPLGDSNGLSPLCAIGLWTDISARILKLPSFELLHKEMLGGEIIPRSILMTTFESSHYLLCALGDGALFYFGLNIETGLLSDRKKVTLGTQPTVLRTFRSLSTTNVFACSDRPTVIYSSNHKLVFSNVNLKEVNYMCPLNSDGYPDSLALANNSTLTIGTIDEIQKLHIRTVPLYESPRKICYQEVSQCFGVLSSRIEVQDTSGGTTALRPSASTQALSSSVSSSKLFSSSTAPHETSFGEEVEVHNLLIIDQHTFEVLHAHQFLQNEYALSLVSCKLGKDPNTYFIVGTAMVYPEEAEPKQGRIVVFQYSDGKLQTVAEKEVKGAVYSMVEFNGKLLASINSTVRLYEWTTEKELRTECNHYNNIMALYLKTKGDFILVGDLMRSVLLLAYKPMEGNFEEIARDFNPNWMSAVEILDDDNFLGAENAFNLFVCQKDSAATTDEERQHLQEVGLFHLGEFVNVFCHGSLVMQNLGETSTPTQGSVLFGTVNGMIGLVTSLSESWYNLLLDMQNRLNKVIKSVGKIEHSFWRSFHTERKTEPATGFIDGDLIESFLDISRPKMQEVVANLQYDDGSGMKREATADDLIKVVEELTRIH
# Text: Polycistronic plasmids were constructed for the mammalian expression of fluorescent reporter fusions of human transcription factors IKZF1 (Ikaros), IKZF2 (Helios), and IKZF3 (Aiolos). The respective protein sequences had their C-terminal end joined to a GGGGS linker repeated three times followed by mNeonGreen, P2A sequence, and mScarlet. The DNA sequences of the open reading frames are as follows:
# IKZF1, IKZF2, and IKZF3 constructs were cloned into the UCOE Hygromycin expression vectors (Millipore Sigma). Reporter constructs were transfected using cationic lipid reagents into adherent HEK 293T cells and stable integrants were selected by treatment with 200 μg/mL hygromycin B. Clonal populations were obtained from the population of stable integrants either by limiting dilution or fluorescence activated cell sorting.
# The clonal stable cell lines were maintained under constant 200 μg/mL hygromycin B selection while being passaged for use in the degradation assays. […] The fluorescence intensity of the IKZF1/2/3-mNeonGreen (FITC channel) and mScarlet (PE channel) reporters were routinely analyzed by flow cytometry to confirm consistent expression levels between experiments.
# The IKZF1/IKZF2/IKZF3 degradation assays were carried out by harvesting the HEK 293T reporter cell lines and resuspending the cells in media formulated for reduced background fluorescence (FluoroBrite; Thermo Fisher). The respective cell lines were seeded at a density of 4000 cells/well into black-walled 384-well optical grade assay tissue culture plates. The cells were incubated overnight at 37° C. to allow for attachment to the assay plate. Dilutions of the compounds were prepared in DMSO from 10 mM compound stocks. The assay plates were treated with appropriate concentrations of the compounds by dispensing the DMSO dilutions in quadruplicate wells with an upper limit of 0.5% final DMSO.
# After 24 hours incubation with the compounds, the assay plates were imaged on an ImageXpress Pico microscopy system (cells maintained at 37° C. during imaging) to obtain the fluorescent readouts. The assay plates were imaged in the FITC and Tetramethylrhodamine (TRITC) channels to obtain the mNeonGreen fluorescence intensity (reporter degradation data) and mScarlet fluorescence intensity (for cell segmentation). 293T-IKZF1 and 293T-IKZF3 reporter cell lines were imaged with exposures of 500 milliseconds (ms) for both FITC and TRITC channels, while the 293T-IKZF2 reporter cell line was imaged with exposures of 1000 ms for FITC and 1250 ms for TRITC. The resulting data was analyzed with Cell Reporter Xpress software using the 2-channel cell scoring analysis with a “percent positive” readout. The TRITC channel was selected for the “nuclei” segmentation with a threshold of 20 while the FITC channel was selected for the “Marker 1” segmentation and a threshold of 100 for the IKZF1 and IKZF3 reporter lines. […] The minimum segmentation width was set to 6 micrometers and the maximum segmentation width was set to 15 micrometers for all cell lines. The DC50 calculations were determined by regression to best fit four-parameter logistic curves using GraphPad Prism.
# T1 sequence (Q96SW2 whole entry): as the sequence (Q96SW2 whole entry, further chain) above
# T1 sequence (Q16531 whole entry partner): as the sequence (Q16531 whole entry partner) above
Compound,EC50 [1],DC50 [2]
"O=C1CCC(N2Cc3cc(O[C@@H]4CCCC[C@@H]4N4CC(c5cncc(Cl)c5)C4)ccc3C2=O)C(=O)N1 (stereo partly drawn) [Compound 105-B, 3-(5-(((1R,2S)-2-(3-(5-chloropyridin-3-yl)azetidin-1-yl)cyclohexyl)oxy)-1-oxoisoindolin-2-yl)piperidine-2,6-dione]",0.029 µM,> 30 µM
"O=C1CCC(N2Cc3cc(O[C@@H]4CCCC[C@@H]4N4CC(c5ncc(C(F)(F)F)cn5)C4)ccc3C2=O)C(=O)N1 (single isomer, unassigned) [Compound 119-B]",0.024 µM,> 30 µM
"O=C1CCC(N2Cc3cc(O[C@@H]4CCCC[C@@H]4N4CC(c5ncncc5Cl)C4)ccc3C2=O)C(=O)N1 (single isomer, unassigned) [Compound 94-B]",0.029 µM,> 30 µM
"Cc1cnc(C2CN([C@H]3CCCC3Oc3ccc4c(c3)CN(C35CC(C3)C(=O)NC5=O)C4=O)C2)o1 (mixture of isomers) [Compound 145-B, Rac-1-(5-(((trans)-2-(3-(5-methyloxazol-2-yl)azetidin-1-yl)cyclopentyl)oxy)-1-oxoisoindolin-2-y1)-3-azabicyclo[3.1.1]heptane-2,4-dione]",> 10 µM,–
"O=C1NC(=O)C2(N3Cc4cc(OC5CCC[C@@H]5N5CC(c6ncc(Cl)cn6)C5)ccc4C3=O)CC1C2 (mixture of isomers) [Compound 156-B, Rac-1-(5-(((cis)-2-(3-(5-chloropyrimidin-2-yl)azetidin-1-yl)cyclopentyl)oxy)-1-oxoisoindolin-2-yl)-3-azabicyclo[3.1.1]heptane-2,4-dione]",> 10 µM,–
"O=C1CCC(N2Cc3cc(O[C@@H]4CCCC[C@H]4N4CC(c5ncc(Cl)cn5)C4)ccc3C2=O)C(=O)N1 (single isomer, unassigned) [Compound 109-B]",0.009 µM,> 30 µM
"O=C1NC(=O)C2(N3Cc4cc(O[C@@H]5CCCC[C@@H]5N5CC(c6ccncc6)C5)ccc4C3=O)CC1C2 (racemic) [Compound 159-B, Rac-1-(1-oxo-5-(((cis)-2-(3-(pyridin-4-yl)azetidin-1-yl)cyclohexyl)oxy)isoindolin-2-yl)-3-azabicyclo[3.1.1]heptane-2,4-dione]",> 10 µM,–
"O=C1NC(=O)C2(N3Cc4cc(O[C@H]5CCCC[C@@H]5N5CC(c6ccncc6)C5)ccc4C3=O)CC1C2 (racemic) [Compound 160-B, Rac-1-(1-oxo-5-(((trans)-2-(3-(pyridin-4-yl)azetidin-1-yl)cyclohexyl)oxy)isoindolin-2-yl)-3-azabicyclo[3.1.1]heptane-2,4-dione]",> 10 µM,–
"O=C1CCC(N2Cc3cc(O[C@@H]4CCCC[C@H]4N4CC(c5ncc(Br)cn5)C4)ccc3C2=O)C(=O)N1 (single isomer, unassigned) [Compound 106-B]",0.006 µM,> 30 µM
"Cc1cnc(C2CN([C@H]3CCCC[C@@H]3Oc3ccc4c(c3)CN(C35CC(C3)C(=O)NC5=O)C4=O)C2)o1 (racemic) [Compound 150-B, Rac-1-(5-(((trans)-2-(3-(5-methyloxazol-2-yl)azetidin-1-yl)cyclohexyl)oxy)-1-oxoisoindolin-2-yl)-3-azabicyclo[3.1.1]heptane-2,4-dione]",> 10 µM,–
"O=C1CCC(N2Cc3cc(O[C@@H]4CCCC[C@@H]4N4CC(c5ncc(C(F)(F)F)cn5)C4)ccc3C2=O)C(=O)N1 (single isomer, unassigned) [Compound 118-B]",0.004 µM,> 30 µM
"O=C1CCC(N2Cc3cc(O[C@H]4CCCC[C@@H]4N4CC(c5ncc(Br)cn5)C4)ccc3C2=O)C(=O)N1 (single isomer, unassigned) [Compound 107-B]",0.022 µM,> 30 µM
"O=C1CCC(N2Cc3cc(O[C@@H]4CCCC[C@H]4N4CC(c5ncc(C6CC6)cn5)C4)ccc3C2=O)C(=O)N1 (single isomer, unassigned) [Compound 132-B]",0.003 µM,> 30 µM
"O=C1CCC(N2Cc3cc(O[C@@H]4CCCC[C@@H]4N4CC(c5ccncc5F)C4)ccc3C2=O)C(=O)N1 (single isomer, unassigned) [Compound 104-B]",0.038 µM,> 30 µM
"O=C1CCC(N2Cc3cc(O[C@H]4CCCC[C@@H]4N4CC(c5ncc(Cl)cn5)C4)ccc3C2=O)C(=O)N1 (single isomer, unassigned) [Compound 110-B]",0.032 µM,> 30 µM
"O=C1CCC(N2Cc3cc(O[C@H]4CCCC[C@H]4N4CC(c5cncc(Cl)c5)C4)ccc3C2=O)C(=O)N1 (single isomer, unassigned) [Compound 114-B]",0.02 µM,> 30 µM
"Cc1cnc(C2CN([C@H]3CCCC[C@H]3Oc3ccc4c(c3)CN(C35CC(C3)C(=O)NC5=O)C4=O)C2)o1 (racemic) [Compound 149-B, Rac-1-(5-(((cis)-2-(3-(5-methyloxazol-2-yl)azetidin-1-yl)cyclohexyl)oxy)-1-oxoisoindolin-2-yl)-3-azabicyclo[3.1.1]heptane-2,4-dione]",> 10 µM,–
"O=C1CCC(N2Cc3cc(O[C@@H]4CCCC[C@@H]4N4CC(c5ccncc5Cl)C4)ccc3C2=O)C(=O)N1 (single isomer, unassigned) [Compound 96-B]",0.03 µM,> 30 µM
"O=C1CCC(N2Cc3cc(OC4CCCC4N4CC(c5ncc(F)cn5)C4)ccc3C2=O)C(=O)N1 (stereo not drawn) [Compound 158-B, 3-(5-((2-(3-(5-fluoropyrimidin-2-yl)azetidin-1-yl)cyclopentyl)oxy)-1-oxoisoindolin-2-yl)piperidine-2,6-dione]",0.088 µM,–
"Cc1cnc(C2CN([C@H]3CCCC3Oc3ccc4c(c3)CN(C35CC(C3)C(=O)NC5=O)C4=O)C2)o1 (mixture of isomers) [Compound 144-B, Rac-1-(5-(((cis)-2-(3-(5-methyloxazol-2-yl)azetidin-1-yl)cyclopentyl)oxy)-1-oxoisoindolin-2-yl)-3-azabicyclo[3.1.1]heptane-2,4-dione]",> 10 µM,–
"O=C1NC(=O)C2(N3Cc4cc(OC5CCC[C@@H]5N5CC(c6ncc(Cl)cn6)C5)ccc4C3=O)CC1C2 (mixture of isomers) [Compound 157-B, Rac-1-(5-(((trans)-2-(3-(5-chloropyrimidin-2-yl)azetidin-1-yl)cyclopentyl)oxy)-1-oxoisoindolin-2-yl)-3-azabicyclo[3.1.1]heptane-2,4-dione]",> 10 µM,–
